# The supplement of paper PMC10307832
# Columns and labels:
# Assay in all cases: relative viability (nuclei count vs DMSO), 5 days (fraction); higher = more cells survive
# Decitabine + Trametinib = compound: Nc1ncn([C@H]2C[C@H](O)[C@@H](CO)O2)c(=O)n1 [Decitabine] + CC(=O)Nc1cccc(-n2c(=O)n(C3CC3)c(=O)c3c(Nc4ccc(I)cc4F)n(C)c(=O)c(C)c32)c1 [Trametinib] (partner 0.02 µM)
# Summary of the method: (§1)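 For relative viability, nuclei counts in treated wells were divided by those in vehicle wells. Lung cancer cell lines had been pin-tool dosed in 1536-well plates the day after seeding and cultured for 5 days, then fixed and stained in one step (final 0.05% Triton X-100, 1% formaldehyde, 1 ug/ml Hoechst) and imaged at 4×. Doses were one drug alone or a fixed anchor-drug dose plus five library-drug doses (not always all listed) in √10 steps, and values are duplicate-plate medians.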
# Cediranib + Crizotinib = compound: COc1cc2c(Oc3ccc4[nH]c(C)cc4c3F)ncnc2cc1OCCCN1CCCC1 [Cediranib] + C[C@@H](Oc1cc(-c2cnn(C3CCNCC3)c2)cnc1N)c1c(Cl)ccc(F)c1Cl [Crizotinib] (partner 1 µM)
# Summary of the method: as §1
# Cediranib + Foretinib = compound: COc1cc2c(Oc3ccc4[nH]c(C)cc4c3F)ncnc2cc1OCCCN1CCCC1 [Cediranib] + COc1cc2c(Oc3ccc(NC(=O)C4(C(=O)Nc5ccc(F)cc5)CC4)cc3F)ccnc2cc1OCCCN1CCOCC1 [Foretinib] (partner 0.25 µM)
# Summary of the method: as §1
# Cediranib + Navitoclax = compound: COc1cc2c(Oc3ccc4[nH]c(C)cc4c3F)ncnc2cc1OCCCN1CCCC1 [Cediranib] + CC1(C)CCC(c2ccc(Cl)cc2)=C(CN2CCN(c3ccc(C(=O)NS(=O)(=O)c4ccc(N[C@H](CCN5CCOCC5)CSc5ccccc5)c(S(=O)(=O)C(F)(F)F)c4)cc3)CC2)C1 [Navitoclax] (partner 0.5 µM)
# Summary of the method: as §1
Cell Line,relative viability (Decitabine + Trametinib; first compound 0.04 µM),relative viability (Decitabine + Trametinib; first compound 0.1265 µM),relative viability (Decitabine + Trametinib; first compound 0.4 µM),relative viability (Decitabine + Trametinib; first compound 1.265 µM),relative viability (Decitabine + Trametinib; first compound 4 µM),relative viability (Cediranib + Crizotinib; first compound 0.04 µM),relative viability (Cediranib + Crizotinib; first compound 0.1265 µM),relative viability (Cediranib + Crizotinib; first compound 0.4 µM),relative viability (Cediranib + Crizotinib; first compound 1.265 µM),relative viability (Cediranib + Crizotinib; first compound 4 µM),relative viability (Cediranib + Foretinib; first compound 0.04 µM),relative viability (Cediranib + Foretinib; first compound 0.1265 µM),relative viability (Cediranib + Foretinib; first compound 0.4 µM),relative viability (Cediranib + Foretinib; first compound 1.265 µM),relative viability (Cediranib + Foretinib; first compound 4 µM),relative viability (Cediranib + Navitoclax; first compound 0.04 µM),relative viability (Cediranib + Navitoclax; first compound 0.1265 µM),relative viability (Cediranib + Navitoclax; first compound 0.4 µM),relative viability (Cediranib + Navitoclax; first compound 1.265 µM),relative viability (Cediranib + Navitoclax; first compound 4 µM)
LOU-NH91,0.661,0.831,0.78,0.707,0.757,0.739,0.767,0.713,0.727,0.653,0.903,1.12,0.859,0.961,0.829,0.673,0.635,0.665,0.706,0.544
LU99A,0.51,0.569,0.632,0.397,0.396,0.639,,0.59,0.547,0.649,0.793,0.728,0.8,0.769,0.832,0.787,,0.813,0.698,0.969
LXF-289,0.647,0.519,0.38,0.312,0.314,0.831,0.727,0.782,0.838,0.804,1.02,0.822,0.912,0.982,0.936,0.97,0.878,0.948,0.926,0.957
NCI-H23,0.344,0.365,0.238,0.191,0.255,0.472,,0.557,0.518,0.597,1.07,,0.939,0.863,1.03,0.974,,0.615,0.702,0.794
NCI-H322M,0.508,0.453,0.6,0.457,0.486,0.894,1.05,0.887,0.904,0.945,1.15,1.04,0.946,0.912,0.922,1.22,1.21,1.08,1.21,1.14
NCI-H441,0.317,0.281,0.255,0.183,0.206,0.78,0.76,1.02,0.504,0.735,1.09,,0.87,0.794,1.14,0.466,0.63,,0.763,0.573
NCI-H460,0.173,0.229,0.214,0.109,0.13,0.867,0.906,0.815,0.889,0.935,1.01,1.02,1.02,0.944,1.04,1.12,1.1,0.938,0.993,1.33
NCI-H520,0.529,0.349,0.424,0.307,0.266,0.93,,0.665,0.801,0.598,0.859,0.656,0.626,0.731,0.576,1.15,,0.926,1.09,1.2
NCI-H596,0.881,0.744,0.509,0.575,0.542,0.934,1.09,0.988,0.954,1.09,1.04,0.833,0.974,,0.926,0.943,0.926,0.938,0.879,0.996
NCI-H647,0.589,0.595,0.43,0.246,0.138,1.24,1.03,0.86,1.1,1.18,1.14,1.25,1.03,1.27,1.3,1.11,,1.16,1.12,1.14
NCI-H727,0.396,0.377,0.344,0.372,0.363,0.927,0.758,0.876,0.671,0.736,,1.05,0.868,0.84,0.93,0.404,0.409,0.38,0.532,0.583
NCI-H838,0.476,0.397,0.237,0.283,0.279,0.798,0.898,0.817,0.811,0.748,1.02,1.02,0.994,1.01,1.05,1.17,1.07,1.17,1.1,1.41
NCI-H1355,0.371,0.382,0.337,0.224,0.248,1.1,0.977,1.08,0.992,1.31,0.991,1.02,0.894,0.948,1.09,0.94,0.954,0.898,0.936,1.04
NCI-H1437,0.444,0.412,0.404,0.337,0.342,0.966,0.87,0.823,0.892,0.879,1.34,1.22,1.24,1.25,1.32,1.14,1.17,1.06,1.07,1.13
NCI-H1650,0.369,0.642,0.536,0.326,0.287,1.29,1.05,0.794,0.953,0.879,1.07,1.36,1.14,1.08,0.873,1.19,1.29,1.08,1.12,0.751
NCI-H1651,0.787,0.757,0.692,0.622,0.487,0.887,0.904,0.876,0.89,0.976,0.827,0.763,0.685,0.831,0.829,1.04,1.01,0.899,1.02,1.18
NCI-H1666,0.785,0.873,0.713,0.783,0.836,1.02,1.02,0.896,1.01,0.874,0.972,1.01,0.916,0.945,1,0.875,1,0.989,1.09,1.1
NCI-H1734,0.595,0.575,0.404,0.313,0.333,0.604,0.612,0.551,0.691,0.695,0.813,0.911,0.822,0.853,0.979,0.759,0.83,0.846,0.807,0.842
NCI-H1755,0.653,0.743,0.688,0.564,0.488,0.888,0.845,0.838,0.855,0.848,0.97,0.941,0.903,0.944,0.908,1.05,1,0.974,0.998,1.07
NCI-H1915,0.233,0.223,0.218,0.192,0.184,1.01,0.851,0.883,0.873,0.832,1.14,1.01,1.08,1.11,1.13,0.787,0.721,0.805,0.788,0.811
NCI-H1944,0.435,0.441,0.369,0.254,0.256,1.14,1.03,0.994,1.05,1.06,0.95,0.975,0.905,0.873,1,1.08,1.11,0.95,0.981,1.01
NCI-H1975,0.284,0.272,0.219,0.233,0.219,1.16,1.05,0.92,1.02,0.913,0.952,1.03,0.944,1.05,1.04,1.18,1.13,0.956,1.19,1.21
NCI-H1993,0.491,0.431,0.394,0.432,0.511,0.968,0.902,0.886,0.865,0.858,0.798,0.936,0.763,0.739,0.53,1.05,0.935,0.981,0.733,1.09
NCI-H2009,0.227,0.255,0.229,0.181,0.252,1.12,1.03,0.989,1.06,1.04,1.24,1.15,1.24,1.25,1.17,1.2,1.14,1.16,1.14,1.11
NCI-H2023,0.473,0.464,0.296,0.196,0.197,0.579,0.703,0.489,0.575,0.588,0.775,0.922,0.924,0.878,1.01,0.997,1.02,1.01,0.997,0.988
NCI-H2085,0.514,0.451,0.394,0.364,0.308,0.888,0.927,0.876,0.813,0.868,0.919,0.942,0.861,0.759,0.923,1.19,1.04,1.13,1.09,1.26
NCI-H2087,0.175,0.179,0.189,0.179,0.163,0.926,0.868,0.807,0.838,0.912,1.19,1.06,0.944,1.15,1.29,1.07,0.914,1.01,0.984,1.07
